Reference: patent publication US7361633B2, “Screening method and anti-tumor drug candidate obtained therefrom” (Ardana Bioscience Limited, priority 2002, dated 2008)
Entries after “also recorded” stand apart in the source; their conditions may differ.

Legend:
Type in all cases: cell-based, human
ERK1/2 = ERK1/2 phosphorylation immunoblot in JEG-3 cells; details: for extent of ERK1/2 phosphorylation (activation): 100 nM, 10 minutes
JNK2 = assay: Phosphorylation of immunoprecipitated myc-JNK2 in JEG-3 cells; details: for activation (phosphorylation) of myc-JNK2: 100 nM; for effect of PTX pre-incubation on JNK phosphorylation: ligand 100 nM, PTX 16 h 200 ng/ml
Procedure: (§1) The activation of two other forms of mitogen-activated protein kinase (MAPK) was studied in JEG-3 and BPH-1 cells by overexpressing myc-tagged constructs of JNK2 or p38α. Immunoprecipitation of these constructs after GnRHR-ligand stimulation of either cell line allowed the degree of kinase activation to be assessed using antisera specific for the active, phosphorylated, form of the kinase. […] In both panel a and b, the dose of GnRH I employed was 100 nM. The respective histograms in each panel represent the mean±s.e. mean of three experimental replicate time courses.
The inset immunoblots depict the phosphorylation status of the immunoprecipitated JNK2 increasing while the level of total unphosphorylated protein (detected with α-JNK antisera) remains unchanged. The histogram below depicts the mean±s.e. mean of three experimental replicates of the above western blot. Stimulation of BPH-1 cells with the same range of ligands (Panel b) yields a similar pattern of MAPK activation, but in this case p38α. […] The inset immunoblots depict an increasing phosphorylation of p38α with no increase in total p38α protein. The histograin below depicts the mean±s.e. mean of three experimental replicates of the above western blot.
(§2) Stimulation of JNK in JEG-3 cells and p38 in BPH-1 cells and its sensitivity to pre-exposure to PTX was assessed by measuring the degree of activating phosphorylation of immunoprecipitated myc-JNK2 or myc-p38α. Panel a depicts a representative western blot of immunoprecipitated myc-JNK2 from JEG-3 cells stimulated with either GnRH I (100 nM) or Ant 135-25 (100 nM). The phosphorylation status of JNK was elevated by GnRH I and Ant135-25 with no significant alteration in total immunoprecipitated JNK levels (assessed by immunoblot with α-myc antisera). […] The histograms in panels b and c depict the mean±s.e. mean of three experimental replicates of the above western blot (panel a) experiments. Panel d depicts an identical experiment to that in panel a except that it is the phosphorylation status of immunoprecipitated myc-p38α that is being measured. […] The histograms in panels e and f depict the mean±s.e. mean of three experimental replicates of the above western blot (panel d) experiments.
Thus it appears that the ability of the GnRH-induced stimulation of either JEG-3 or BPH-1 cells is not correlated to their anti-proliferative action. […] Using specific antisera against the kinase active form of ERK5 (or BMK) we observed no specific activation of this form of MAPK however using antisera specifically recognising the active forms of either c-Jun N-terminal kinase (JNK) or p38 MAPK we noted that in JEG-3 cells there was a potent, yet delayed GnRH-induced activation of JNK and a similarly slow inset activation of p38 in the BPH-1 cells. The level of activation of the endogenous stress-activated protein kinases (SAPKs) was relatively small but greater than the GnRH-activated ERK levels in these cells. To further investigate the validity of the observed SAPK activation we transfected the tumour cell lines with myc-tagged JNK2 or p38α MAPK isoforms, stimulated the cells with GnRH and then immunoprecipitated with anti-myc sera and western blotted the immunoprecipitates for total JNK/p38 protein and active JNK/p38. In FIG. 7 (panel a) GnRH causes a demonstrable, time-dependent and protracted activation of the immunoprecipitated JNK2. Activation of JNK2 typically only occurred after 30 minutes of GnRH I stimulation. […] As with the activation of the JNK in the JEG-3 cells there was a considerable delay in the onset of the p38 activation unlike the ERK signalling events that typically occur and peak within 20 minutes of GnRH ligand application (FIG. 7, panel b).

p38α = assay: Phosphorylation of immunoprecipitated myc-p38α in BPH-1 cells; details: for activation (phosphorylation) of myc-p38α / effect of PTX pre-exposure on p38α activation: BPH-1 cells; for activation (phosphorylation) of myc-p38α: 100 nM; for effect of PTX pre-exposure on p38α activation: PTX 16 h 200 ng/ml
Procedure: as §1
The histogram below depicts the mean±s.e. mean of three experimental replicates of the above western blot. […] The histograin below depicts the mean±s.e. mean of three experimental replicates of the above western blot.
as §2, with “myc-p38α.” for “myc-p38α. Panel a depicts a representative western blot of immunoprecipitated myc-JNK2 from JEG-3 cells stimulated with either GnRH I (100 nM) or Ant 135-25 (100 nM). The phosphorylation status of JNK was elevated by GnRH I and Ant135-25 with no significant alteration in total immunoprecipitated JNK levels (assessed by immunoblot with α-myc antisera).”
To further investigate the validity of the observed SAPK activation we transfected the tumour cell lines with myc-tagged JNK2 or p38α MAPK isoforms, stimulated the cells with GnRH and then immunoprecipitated with anti-myc sera and western blotted the immunoprecipitates for total JNK/p38 protein and active JNK/p38.

Row | Compound | effect on GnRH I activation of ERK1/2 (ERK1/2; 20 μM SB203580, data not shown) | effect on GnRH I stimulation of JNK (JNK2; 20 μM SB203580, data not shown) | effect on GnRH-mediated activation of p38α (p38α) | extent of ERK1/2 phosphorylation (activation) (ERK1/2) | activation (phosphorylation) of myc-JNK2 (JNK2) | effect of PTX pre-incubation on JNK phosphorylation (JNK2) | activation (phosphorylation) of myc-p38α (p38α) | effect of PTX pre-exposure on p38α activation (p38α) | extent of ERK1/2 phosphorylation (activation) (ERK1/2; listed as Ant135-18) | activation (phosphorylation) of myc-JNK2 (JNK2; listed as Ant135-18) | activation (phosphorylation) of myc-p38α (p38α; listed as Ant135-18) | time to onset of JNK2 activation (JNK2)
1 | C[S+]([O-])c1ccc(-c2nc(-c3ccncc3)c(-c3ccc(F)cc3)[nH]2)cc1 (centres unmarked) [SB203580] | not significantly affecting the activation of ERK1/2 MAPKs | effectively abrogates the ability of GnRH I to stimulate JNK | significantly blunted the GnRH-mediated activation of p38α |  |  |  |  |  |  |  |  | 
2 | Ac-D-Nal(2)-D-4-ClPhe-D-Pal-Ser-1-MePal-D-IsopropylLys-Leu-IsopropylLys-Pro-D-AlaNH2 [Ant 135-25] |  |  |  | activate ERK1/2 to a similar extent | can efficiently activate the myc-JNK2 construct | abolished with the PTX pre-incubation | effectively activate p38α | acutely sensitive to the pre-exposure of PTX |  |  |  | 
3 | Ac-D-Nal(2)-D-4-ClPhe-D-Pal-Ser-Ile-D-IsopropylLys-Leu-IsopropylLys-Pro-D -AlaNH2 [Ant 135-18] |  |  |  | least effective | fails to efficiently activate JNK |  | does not |  | considerably less | dramatically lower efficacy than GnRH I or Ant 135-25 | dramatically lower efficacy than GnRH I or Ant 135-25 | 
4 | GnRH I: Gonadotropin-Releasing Hormone, a decapeptide; the original form of GnRH, re-named GnRH I |  |  |  | activate ERK1/2 to a similar extent | significant activation of the immunoprecipitated myc-JNK2; also recorded: can efficiently activate the myc-JNK2 construct | abolished with the PTX pre-incubation | significant activation of myc-p38α; also recorded: effectively activate p38α; also recorded: protracted activation of the immunoprecipitated myc-p38α | acutely sensitive to the pre-exposure of PTX |  |  |  | > 30 min
